Tested on: P493-6 (myc "on") cells
Assay: Cell Proliferation Assay
Format: cell-based
Conditions: P493-6, 72 h, read-out: Cell prolif P493 72 h IC50, P493 cells, 72 h
Description: P493-6 (myc “on”) cells were maintained in growth media (RPMI-1640, 10% FBS, 2 mM glutamine, 100 units/ml Penicillin and 100 μg/ml streptomycin) at 37° C. with 5% CO2. For compound assay, P493-6 cells were plated in 96-well V-bottom plates on the day of compound addition in 50 μl of growth media at a cell density of 200,000 cells/ml (10,000 cells/well). Compounds were serially diluted in 100% DMSO at 200-times the final concentration. Compounds were diluted 100-fold into growth media and then 50 μl of this mixture was added to cell plates making the final concentration of DMSO 0.5%. Cells were incubated with compound for 72 hrs at 37° C. with 5% CO2 and analyzed for antiproliferative effects either by Cell Titer Glo (Promega) or FACS analysis using the Viacount (Millipore) kit on the Guava instrument.

SMILES | IC50
O=C(Nc1nnc(CCSCCc2nnc(NC(=O)[C@H](O)c3ccccc3)s2)s1)[C@H](O)c1ccccc1 [Compound 81] | 7600 nM
O=C(Cc1ccco1)Nc1nnc(CCSCCc2nnc(NC(=O)Cc3ccco3)s2)s1 [Compound 82] | 1300 nM
O=C(CC1CC1)Nc1nnc(CCSCCc2nnc(NC(=O)CC3CC3)s2)s1 [Compound 83] | 1400 nM
O=C(Cc1ccsc1)Nc1nnc(CCSCCc2nnc(NC(=O)Cc3ccsc3)s2)s1 [Compound 84] | 890 nM
O=C(CC1CC1)Nc1nnc(CCCCc2nnc(NC(=O)CC3CC3)s2)s1 [Compound 85] | 1800 nM
O=C(Cc1ccco1)Nc1nnc(CCCCc2nnc(NC(=O)Cc3ccco3)s2)s1 [Compound 86] | 520 nM
O=C(Cc1cccs1)Nc1nnc(CCCCc2nnc(NC(=O)Cc3cccs3)s2)s1 [Compound 87] | 60 nM
O=C(Cc1ccsc1)Nc1nnc(CCCCc2nnc(NC(=O)Cc3ccsc3)s2)s1 [Compound 88] | 120 nM
O=C(Nc1nnc(CCCCc2nnc(NC(=O)[C@@H](O)c3ccccc3)s2)s1)[C@@H](O)c1ccccc1 [Compound 92] | 470 nM
O=C(Nc1nnc(CCSCCc2nnc(NC(=O)[C@@H](O)c3ccccc3)s2)s1)[C@@H](O)c1ccccc1 [Compound 93] | 2000 nM
O=C(Nc1nnc(CCCCc2nnc(NC(=O)C3CC(O)c4ccccc43)s2)s1)C1CC(O)c2ccccc21 (stereo not drawn) [Compound 94] | 470 nM
O=C(Nc1nnc(CCSCCc2nnc(NC(=O)C3CCOC3)s2)s1)C1CCOC1 (stereo not drawn) [Compound 95] | 45000 nM
Cc1cc(C)n(CC(=O)Nc2nnc(CCSCCc3nnc(NC(=O)Cn4nc(C)cc4C)s3)s2)n1 [Compound 97] | 17000 nM
CC(C)(C)OC(=O)Nc1cccc(CC(=O)Nc2nnc(CCSCCc3nnc(NC(=O)Cc4cccc(NC(=O)OC(C)(C)C)c4)s3)s2)c1 [Compound 98] | 3900 nM
COCCC(=O)Nc1nnc(CCCCc2nnc(NC(=O)CCOC)s2)s1 [Compound 100] | 9000 nM
COCCC(=O)Nc1nnc(CCSCCc2nnc(NC(=O)CCOC)s2)s1 [Compound 101] | 17000 nM
O=C(Cc1cccc(F)c1)Nc1nnc(CCSCCc2nnc(NC(=O)Cc3cccc(F)c3)s2)s1 [Compound 102] | 1400 nM
CC1(C)OC(=O)[C@@H](CC(=O)Nc2nnc(CCCCc3nnc(NC(=O)C[C@H]4OC(C)(C)OC4=O)s3)s2)O1 [Compound 103] | > 50000 nM
CCC(C)C(=O)Nc1nnc(CCSCCc2nnc(NC(=O)C(C)CC)s2)s1 (stereo not drawn) [Compound 105] | 119000 nM
CCC(C)C(=O)Nc1nnc(CCCCc2nnc(NC(=O)C(C)CC)s2)s1 (stereo not drawn) [Compound 107] | 1200 nM
CC(C)(C)OC(=O)N1CCC(CC(=O)Nc2nnc(CCSCCc3nnc(NC(=O)CC4CCN(C(=O)OC(C)(C)C)CC4)s3)s2)CC1 [Compound 111] | 880 nM
CC(C)(C)OC(=O)N1CCCC(CC(=O)Nc2nnc(CCSCCc3nnc(NC(=O)CC4CCCN(C(=O)OC(C)(C)C)C4)s3)s2)C1 (stereo not drawn) [Compound 112] | 890 nM

SMILES | IC50
CC(C)(C)OC(=O)N1CCC(CC(=O)Nc2nnc(CCCCc3nnc(NC(=O)CC4CCN(C(=O)OC(C)(C)C)CC4)s3)s2)CC1 [Compound 114] | 560 nM
CC(C)(C)OC(=O)N1CCCC(CC(=O)Nc2nnc(CCCCc3nnc(NC(=O)CC4CCCN(C(=O)OC(C)(C)C)C4)s3)s2)C1 (stereo not drawn) [Compound 115] | 1100 nM
O=C(Cc1cccs1)Nc1nnc(CCSCCc2nnc(NC(=O)Cc3cccs3)s2)s1 [Compound 116] | 720 nM
COc1ccc2c(c1)CC(C(=O)Nc1nnc(CCSCCc3nnc(NC(=O)C4Cc5cc(OC)ccc5O4)s3)s1)O2 (stereo not drawn) [Compound 117] | 6200 nM
O=C(Nc1nnc(CCSCCc2nnc(NC(=O)C3Cc4cc(Br)ccc4O3)s2)s1)C1Cc2cc(Br)ccc2O1 (stereo not drawn) [Compound 118] | 36000 nM
CC1(C(=O)Nc2nnc(CCSCCc3nnc(NC(=O)C4(C)CCCO4)s3)s2)CCCO1 (stereo not drawn) [Compound 119] | 13000 nM
O=C(Nc1nnc(CCCCc2nnc(NC(=O)C3Cc4cc(Cl)ccc4O3)s2)s1)C1Cc2cc(Cl)ccc2O1 (stereo not drawn) [Compound 120] | 38000 nM
COc1ccc2c(c1)CC(C(=O)Nc1nnc(CCCCc3nnc(NC(=O)C4Cc5cc(OC)ccc5O4)s3)s1)O2 (stereo not drawn) [Compound 121] | 3500 nM
O=C(Nc1nnc(CCCCc2nnc(NC(=O)C3Cc4cc(Br)ccc4O3)s2)s1)C1Cc2cc(Br)ccc2O1 (stereo not drawn) [Compound 122] | 43000 nM
CC1(C(=O)Nc2nnc(CCCCc3nnc(NC(=O)C4(C)CCCO4)s3)s2)CCCO1 (stereo not drawn) [Compound 123] | 6600 nM
O=C(C[C@@H](O)c1ccccc1)Nc1nnc(CCSCCc2nnc(NC(=O)C[C@@H](O)c3ccccc3)s2)s1 [Compound 126] | 12000 nM
O=C(C[C@@H](O)c1ccccc1)Nc1nnc(CCCCc2nnc(NC(=O)C[C@@H](O)c3ccccc3)s2)s1 [Compound 127] | 450 nM
CC(=O)N[C@@H](C(=O)Nc1nnc(CCSCCc2nnc(NC(=O)[C@H](NC(C)=O)c3ccccc3)s2)s1)c1ccccc1 [Compound 128] | > 50000 nM
O=C(CC1CCNCC1)Nc1nnc(CCSCCc2nnc(NC(=O)CC3CCNCC3)s2)s1 [Compound 129] | > 50000 nM
O=C(Nc1nnc(CCSCCc2nnc(NC(=O)C3Oc4ccccc4O3)s2)s1)C1Oc2ccccc2O1 [Compound 134] | 28000 nM
O=C(Nc1nnc(CCCCc2nnc(NC(=O)C3COc4ccccc43)s2)s1)C1COc2ccccc21 (stereo not drawn) [Compound 135] | 490 nM
O=C(Nc1nnc(CCCCc2nnc(NC(=O)C3Oc4ccccc4O3)s2)s1)C1Oc2ccccc2O1 [Compound 136] | 4700 nM
O=C(N[C@@H](CO)C(=O)Nc1nnc(CCSCCc2nnc(NC(=O)[C@H](CO)NC(=O)OCc3ccccc3)s2)s1)OCc1ccccc1 [Compound 138] | 2700 nM
N[C@@H](CO)C(=O)Nc1nnc(CCCCc2nnc(NC(=O)[C@@H](N)CO)s2)s1 [Compound 140] | > 50000 nM
CC[C@](O)(C(=O)Nc1nnc(CCSCCc2nnc(NC(=O)[C@@](O)(CC)c3ccccc3)s2)s1)c1ccccc1 [Compound 141] | 4300 nM
CC[C@](O)(C(=O)Nc1nnc(CCCCc2nnc(NC(=O)[C@@](O)(CC)c3ccccc3)s2)s1)c1ccccc1 [Compound 143] | 2200 nM
O=C(Nc1nnc(CCCCc2nnc(NC(=O)[C@@H](O)Cc3ccccc3)s2)s1)[C@@H](O)Cc1ccccc1 [Compound 146] | 460 nM

SMILES | IC50
CO[C@@H](C(=O)Nc1nnc(CCCCc2nnc(NC(=O)[C@H](OC)c3ccccc3)s2)s1)c1ccccc1 [Compound 147] | 370 nM
CO[C@H](C(=O)Nc1nnc(CCCCc2nnc(NC(=O)[C@@H](OC)c3ccccc3)s2)s1)c1ccccc1 [Compound 148] | 390 nM
CC(CO)(CO)C(=O)Nc1nnc(CCCCc2nnc(NC(=O)C(C)(CO)CO)s2)s1 [Compound 151] | > 50000 nM
CC(CO)(CO)C(=O)Nc1nnc(CCCCc2nnc(NC(=O)Cc3cccc(F)c3)s2)s1 [Compound 152, N,N′-(5-(4-(5-(2-(3-fluorophenyl)acetamido)-1,3,4-thiadiazol-2-yl)butyl)-1,3,4-thiadiazol-2-yl)-3-hydroxy-2-(hydroxymethyl)-2-methylpropanamide] | 1100 nM
O=C(C[C@@H](O)C(=O)O)Nc1nnc(CCCCc2nnc(NC(=O)C[C@@H](O)C(=O)O)s2)s1 [Compound 154] | > 50000 nM
N#Cc1cccc(CC(=O)Nc2nnc(CCSCCc3nnc(NC(=O)Cc4cccc(C#N)c4)s3)s2)c1 [Compound 155] | 1900 nM
COc1cccc(CC(=O)Nc2nnc(CCSCCc3nnc(NC(=O)Cc4cccc(OC)c4)s3)s2)c1 [Compound 156] | 630 nM
COc1ccc(CC(=O)Nc2nnc(CCSCCc3nnc(NC(=O)Cc4ccc(OC)c(OC)c4)s3)s2)cc1OC [Compound 157] | 180 nM
CS(=O)(=O)c1cccc(CC(=O)Nc2nnc(CCSCCc3nnc(NC(=O)Cc4cccc(S(C)(=O)=O)c4)s3)s2)c1 [Compound 158] | 8100 nM
COc1ccc(CC(=O)Nc2nnc(CCCCc3nnc(NC(=O)Cc4ccc(OC)c(OC)c4)s3)s2)cc1OC [Compound 160] | > 50000 nM
COc1ccc(CC(=O)Nc2nnc(CCSCCc3nnc(NC(=O)Cc4ccc(OC)cc4)s3)s2)cc1 [Compound 161] | 1400 nM
CN(C)c1ccc(CC(=O)Nc2nnc(CCSCCc3nnc(NC(=O)Cc4ccc(N(C)C)cc4)s3)s2)cc1 [Compound 162] | 150 nM
CN(C)c1ccc(CC(=O)Nc2nnc(CCCCc3nnc(NC(=O)Cc4ccc(N(C)C)cc4)s3)s2)cc1 [Compound 164] | 130 nM
COCC(C(=O)Nc1nnc(CCCCc2nnc(NC(=O)C(COC)c3ccccc3)s2)s1)c1ccccc1 (stereo not drawn) [Compound 165] | 33000 nM
O=C(Nc1nnc(CCCCc2nnc(NC(=O)C3(c4ccccc4)CCOCC3)s2)s1)C1(c2ccccc2)CCOCC1 [Compound 166] | 6800 nM
O=C(Nc1nnc(CCCCc2nnc(NC(=O)C3(c4cccs4)CCOCC3)s2)s1)C1(c2cccs2)CCOCC1 [Compound 167] | 34000 nM
O=C(Nc1nnc(CCCCc2nnc(NC(=O)C3(c4ccccc4)CC3)s2)s1)C1(c2ccccc2)CC1 [Compound 168] | > 50000 nM
O=C(Nc1nnc(CCCCc2nnc(NC(=O)[C@H](O)Cc3ccccc3)s2)s1)[C@H](O)Cc1ccccc1 [Compound 169] | 3400 nM
O=C(Nc1nnc(CCCc2nnc(NC(=O)C(O)Cc3ccccc3)s2)s1)C(O)Cc1ccccc1 (stereo not drawn) [Compound 170] | 9300 nM
O=C(Nc1nnc(CCCc2nnc(NC(=O)C(O)c3ccccc3)s2)s1)C(O)c1ccccc1 (stereo not drawn) [Compound 172] | 3700 nM
CC(=O)OC(C(=O)Nc1nnc(CCCCc2nnc(NC(=O)C(OC(C)=O)c3ccccc3)s2)s1)c1ccccc1 (stereo not drawn) [Compound 173] | 760 nM
O=C(Nc1nnc(CCCCc2nnc(NC(=O)C(O)c3ccccc3)s2)s1)C(O)c1ccccc1 (stereo not drawn) [Compound 174] | 440 nM
